Source: patent publication US20060051764A1, “Thymidylate synthase polymorphisms for use in screening for cancer susceptibility” (priority 2002, published 2006)

How the values were obtained:
[1] = system: disseminated colorectal cancer; assay: Clinical outcome (response and survival) to protracted infusion of 5-FU in colorectal cancer patients by TS genotype; assay type: in vivo, human
Description: To explore the role of SNP as a predictive marker, 40 patients were evaluated with disseminated colorectal cancer (SWOG 9420 and 3C-92-2) for response and survival to protracted infusion of 5-fluorouracil. The distribution of the TS tandem repeat polymorphism was as follows: 2R/2R 20% (8/40), 2R/3R 50% (20/40), and 3R/3R 30% (12/40). […] This relationship also lacked statistical significant (P=0.14, Logrank Test).
Patient samples were re-classified into two groups based on predicted high and low TS expression using the tandem repeat polymorphism and the SNP. Since it was hypothesized that the SNP, or variant 3R (3RV) allele, would decrease the TS gene expression of a 3R allele, 21 patients were grouped with genotypes of 2R/2R, 2R/3RV and 3RV/3RV into the predicted “low TS expression” group (Group A) and 19 patients with 2R/3R, 3R/3RV, and 3R/3R into the predicted “high TS expression” group (Group B). These groups were then re-evaluated for an association between TS genotypes and clinical outcome to 5-FU chemotherapy.
The presence of the new SNP within the TS gene was confirmed in Non-Hispanic Whites. Individuals (disease-free controls) were initially recruited for a cancer case-control study in California as described in Castelao et al., 2001. Patients included in this study has metastatic colorectal cancer and were enrolled in the following protocols: Southwest Oncology Group protocol 9420 (19 patients, 5-FU doses used: CI (continuous infusion) 300 mg/m^2/d v. CI 2600 mg/m^2/d q weekly) opened for accrual in May 1995 and closed in May 1999; and the University of Southern California protocol: 3C-92-2 (21 patients, 5-FU doses used: CI 200 mg/m^2/d q weekly for three weeks followed by one week rest) opened for accrual in September 1992 and closed in June 1995. All patients signed an informed consent to participate in the clinical trial and for evaluation of the TS polymorphism. Genotyping for the TS polymorphism was performed on paraffin-embedded tissues in all patients.
All patients had bi-dimensionally measurable disease at the time of protocol entry. Responders to therapy were classified as those patients whose tumor burden (the sum, overall measurable lesions of the products of the largest diameter and its perpendicular diameter) decreased by 50% or more for at least six weeks. Progressive disease was defined as 25% or more increase in tumor burden (compared to the smallest measurement) or the appearance of new lesions.
Survival was computed as the number of months from the initiation of chemotherapy with 5-FU to death of any cause. Patients who were alive at the last follow-up evaluation were censored at that time.
Contingency tables and Fisher's exact test (Metha et al., 1983) were used to summarize the association of response (grouped as response, stable disease, and progressive disease) to 5-FU with the TS genotypes. Kaplan-Meier plots (Kaplan et al., 1958) and the log-rank test (Miller et al., 1981) were used to compare survival of patients according to TS genotypes. Median survival was calculated based on the Kaplan-Meier estimator. All p-values are two-sided.

[2] = molecular target: T1, USF-1 phosphorylated by cdc2/p34 (Homo sapiens, UniProt P22415 P22415:1-310); assay: EMSA; 1 mM MgCl2, 50 mM NaCl, room temperature; conditions: tags: N-terminal 6xHis (pProEX-HTb, E. coli), in vitro phosphorylated with cdc2/p34; chain copies: 2; label: 32P
Description: Since the potential G→C SNP at the 12th nucleotide of the 28 bp repeats lies within the USF binding site, the ability of the recombinant USF-1 protein to bind the variant consensus element by EMSA was tested. […] Gel mobility shift analyses were performed using recombinant USF-1 with a ³²P-labeled 28 bp probe corresponding to one tandem repeat containing a G→C base change at the 12th nucleotide. Lane 1 was free probe. In lane 2, 30 ng of recombinant USF-1 was incubated with probe. In lane 3, 30 ng of phospho-USF-1 was incubated with probe.
(§1) Synthetic double-stranded oligonucleotides (Integrated DNA Technologies) corresponding to a wild type (R) or variant (RV) 28 bp tandem repeat sequence from the TS 5′ regulatory region were labeled with [γ-³²P] ATP (Amersham Pharmacia Biotech) according to the Gel-Shift Assay Kit protocol (Promega). For each gel shift reaction, 10,000 cpm of labeled probe 30 ng of recombinant USF-1 for 20 min at room temperature in a 20 μl reaction mixture containing 10 mM Tris-HCl, pH 7.5, 50 mM NaCl, 0.5 mM dithiothreitol, 0.5 mM EDTA, 4% glycerol, 1 mM MgCl₂ and 0.1 μg of poly(dIdC) DNA. Where indicated, unlabeled competitor oligonucleotides were incubated for 10 min at room temperature with nuclear extracts prior to addition of labeled probe.
Reactions using recombinant USF-1 contained ˜30 ng of either USF-1 or phospho USF-1. […]

[3] = molecular target: T1, USF-1 phosphorylated by cdc2/p34; assay: EMSA; consensus probe; sequence taken from the listed USF-1 specific oligonucleotide; conditions: tags: N-terminal 6xHis (pProEX-HTb, E. coli), in vitro phosphorylated with cdc2/p34; chain copies: 2; label: 32P when used as probe
Description: When both forms of USF-1 were used in an EMSA assay utilizing the perfect USF-1 consensus element as a probe, only the phosphorylated form was able to bind (FIG. 3B, lanes 2 and 3). Gel mobility shift analyses were performed using recombinant USF-1 with a ³²P-labeled USF-1 specific consensus probe containing an intact E-box site. Lane 1 contained only free probe. Lane 2 was 30 ng of recombinant phospho-USF-1 incubated with probe in the absence of unlabeled competitor oligonucleotides. Lane 3 contained 30 ng of recombinant unphosphorylated USF-1 incubated with probe in the absence of unlabeled specific competitor oligonucleotides. In lanes 4-5, phospho-USF-1 was pre-incubated with 500 molar excess of unlabeled USF-1 specific competitor oligonucleotide and 500 molar excess of nonspecific dIdC competitor, respectively.
as §1, with “Where indicated, unlabeled competitor oligonucleotides were incubated for 10 min at room temperature with nuclear extracts prior to addition of labeled probe.” left out

[4] = molecular target: T1, USF-1 phosphorylated by cdc2/p34; assay: EMSA; 1 mM MgCl2, 50 mM NaCl, room temperature; abolished by USF-1 specific competitor; conditions: tags: N-terminal 6xHis (pProEX-HTb, E. coli), in vitro phosphorylated with cdc2/p34; chain copies: 2; label: 32P
Description: To determine the ability of the phosphorylated form of USF-1 to bind to its consensus element within the TS repeat, an EMSA assay was carried out using the ³²P-labeled 28 bp sequence as a probe corresponding to one tandem repeat containing an intact E-box site. Lane 1 was free probe. In lane 2, 30 ng of recombinant USF-1 was incubated with probe in the absence of unlabeled competitor oligonucleotides. In lane 3, 30 ng of phospho-USF-1 was incubated with probe in the absence of unlabeled competitor oligonucleotides. In lanes 4-6, phospho-USF-1 was pre-incubated with 500 molar excess of: unlabeled probe, USF-1 specific competitor, and non-specific poly (dIdC) competitor oligonucleotides, respectively. Incubation of the phosphorylated form of USF-1 with the probe caused a shift on the gel that was abolished by the addition of unlabeled specific competitor oligonucleotides (FIG. 3C, lanes 3 and 5).
Synthetic double-stranded oligonucleotides (Integrated DNA Technologies) corresponding to a wild type (R) or variant (RV) 28 bp tandem repeat sequence from the TS 5′ regulatory region were labeled with [γ-³²P] ATP (Amersham Pharmacia Biotech) according to the Gel-Shift Assay Kit protocol (Promega). […]

[5] = patients with TS genotype 2R/2R (n = 8)
[6] = patients with TS genotype 2R/3R (n = 20)
[7] = patients with TS genotype 3R/3R (n = 12)

T1 sequence (P22415 whole entry, one chain of several): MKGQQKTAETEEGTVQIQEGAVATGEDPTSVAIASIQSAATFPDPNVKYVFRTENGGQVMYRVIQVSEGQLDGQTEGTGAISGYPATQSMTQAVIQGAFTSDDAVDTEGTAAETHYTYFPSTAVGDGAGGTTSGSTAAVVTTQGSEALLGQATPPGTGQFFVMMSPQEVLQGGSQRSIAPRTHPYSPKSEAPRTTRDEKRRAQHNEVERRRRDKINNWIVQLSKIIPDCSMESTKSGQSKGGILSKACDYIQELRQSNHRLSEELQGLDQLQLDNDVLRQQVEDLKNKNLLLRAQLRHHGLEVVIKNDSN

Molecule: O=c1[nH]cc(F)c(=O)[nH]1 [5-FU, 5-fluorouracil]
- median survival ([1]; 3R/3R carriers): 8.4 months
- survival ([1]; Group A, predicted low TS expression (2R/2R, 2R/3RV, 3RV/3RV)): 10.1 months
- Clinical Response: Stable Disease ([1]; Group A, predicted low TS expression: 2R/2R, 2R/3RV, 3RV/3RV (n = 21)): 4 (19%)
- survival ([1]; Group B, predicted high TS expression (2R/3R, 3R/3RV, 3R/3R)): 7.4 months
- Clinical Response: Stable Disease ([1]; Group B, predicted high TS expression: 2R/3R, 3R/3R, 3R/3RV (n = 19)): 7 (37%)
- median survival ([1]; heterozygous group (2R/3R)): 7.4 months
- median survival ([1]; patients with TS genotype 2R/2R): 16.2 months
- Clinical Response: Progression [1, 5]: 3 (37%)
- Clinical Response: Stable Disease [1, 5]: 1 (13%)
- Clinical Response: Progression [1, 6]: 12 (60%)
- Clinical Response: Stable Disease [1, 6]: 5 (25%)
- disease response (patients responding/total) ([1]; patients with TS genotype 3R/3R): 0/12
- Clinical Response: Progression [1, 7]: 7 (58%)
- Clinical Response: Response [1, 7]: 0 (0%)
- Clinical Response: Stable Disease [1, 7]: 5 (42%)

B1: TS variant tandem repeat (RV) (dsDNA)
DNA 1: CCGCGCCACTTCGCCTGCCTCCGTCCCG
DNA 2: CGGGACGGAGGCAGGCGAAGTGGCGCGG
- binding result [2]: no binding

B2: USF-1 consensus oligonucleotide (dsDNA)
DNA 1: CACCCGGTCACGTGGCCTACACC
DNA 2: GGTGTAGGCCACGTGACCGGGTG
- binding result [3]: binds

B3: TS wild-type tandem repeat (R) (dsDNA)
DNA 1: CCGCGCCACTTGGCCTGCCTCCGTCCCG
DNA 2: CGGGACGGAGGCAGGCCAAGTGGCGCGG
- binding result [4]: binds
